Test results from publication PMC8659031, “Substituted Aryl Benzylamines as Potent and Selective Inhibitors of 17β-Hydroxysteroid Dehydrogenase Type 3” (Molecules, 2021).
Where two headings read alike, the source gives them in different places.

Columns and labels:
17β-HSD Type 2 [1] = biological target: T1, 17β-HSD Type 2 (Homo sapiens, UniProt P37059); test: 17β-HSD2 activity assay in MDA-MB-231 cells (E2 to E1); assay type: cell-based; parameters: endogenous in cells; host or cells: MDA-MB-231 human breast cancer cells
T1 sequence (P37059 1-387): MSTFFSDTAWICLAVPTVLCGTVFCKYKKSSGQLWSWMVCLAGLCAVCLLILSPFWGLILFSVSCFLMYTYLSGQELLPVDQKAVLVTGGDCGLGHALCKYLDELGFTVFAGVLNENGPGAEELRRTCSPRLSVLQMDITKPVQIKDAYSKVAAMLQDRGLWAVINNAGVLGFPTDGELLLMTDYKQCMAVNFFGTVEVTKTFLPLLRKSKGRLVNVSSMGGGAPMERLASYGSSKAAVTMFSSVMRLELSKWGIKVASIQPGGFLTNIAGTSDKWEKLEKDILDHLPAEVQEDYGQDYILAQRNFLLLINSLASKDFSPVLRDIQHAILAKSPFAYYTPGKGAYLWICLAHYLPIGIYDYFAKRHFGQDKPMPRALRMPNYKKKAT
Experimental: MDA-MB-231 human breast cancer cells in T25 flasks were incubated with 2 nM [^3H]-E2 (41.3 Ci/mmol; PerkinElmer, Beaconsfield, Bucks, UK) in the presence or absence of 10 µM candidate 17β-HSD3 inhibitors. After 3 h at 37 °C, the steroids were isolated from the mixture by extraction with diethyl ether and procedural losses were measured using [^14C]-E1 (5000 dpm; PerkinElmer). Separation of [^3H]-E1 from [^3H]-E2 was achieved using thin layer chromatography, eluting with dichloromethane/ethyl acetate, 4:1 v/v and the amount of [^3H]-E1 produced was calculated from the […] [^3H] counts detected and recovery of [^14C]-E1 (Beckman LS 6000 SC). A positive control was used in this assay (IC50 5.4 μM) to ensure reproducible results were obtained.

17β-HSD Type 1 = biological target: T2, 17β-HSD Type 1 (Homo sapiens, UniProt P14061); test: 17β-HSD1 activity assay in T-47D breast cancer cells (estrone to estradiol); assay type: cell-based; details: T47D, T-47D cells; for inhibition at 10 µM: tested at 10 μM
T2 construct: endogenous in cells; host or cells: T-47D breast cancer cells
T2 sequence (P14061 1-328): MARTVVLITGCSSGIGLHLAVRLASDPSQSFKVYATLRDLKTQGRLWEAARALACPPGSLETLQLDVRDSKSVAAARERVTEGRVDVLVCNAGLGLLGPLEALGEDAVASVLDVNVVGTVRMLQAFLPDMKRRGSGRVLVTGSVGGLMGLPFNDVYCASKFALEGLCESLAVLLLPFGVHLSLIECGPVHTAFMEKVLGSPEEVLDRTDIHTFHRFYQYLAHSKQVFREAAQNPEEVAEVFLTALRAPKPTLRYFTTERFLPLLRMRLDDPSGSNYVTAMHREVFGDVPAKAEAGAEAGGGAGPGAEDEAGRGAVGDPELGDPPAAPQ
Experimental: The assay is of a similar format to the 17β-HSD Type 3 TLC assay. T-47D breast cancer cells, which express a high ratio of 17β-HSD Type 1 to 17β-HSD Type 2, were used to test the conversion of labelled estrone to estradiol in the presence and absence of the potential inhibitors. The cells were incubated with [^3H]-estrone at a concentration of 2 nM, in the absence or presence of the inhibitors (10 μM). After incubation of the culture for 3 h at 37 °C, the products were isolated and separated by TLC using DCM/ EtOAc (4:1). The amount of estradiol formed was measured and compared to the control cells, where no inhibitor was present. Each assay was carried out in the presence of a positive control (IC50 of 27 nM) to ensure reproducible results were obtained.

17β-HSD3 = biological target: T3, 17β-HSD3 (Homo sapiens, UniProt P37058); test: Assay for 17β-HSD3 activity (TLC assay) in 293-EBNA cells stably transfected with 17β-HSD3; assay type: cell-based; details: for inhibition at 10 µM: 293-EBNA, mean of at least two measurements, typically SD ±5%
T3 construct: expressed in transfected cells; host or cells: human 293-EBNA cells, stably transfected
T3 sequence (P37058 1-310): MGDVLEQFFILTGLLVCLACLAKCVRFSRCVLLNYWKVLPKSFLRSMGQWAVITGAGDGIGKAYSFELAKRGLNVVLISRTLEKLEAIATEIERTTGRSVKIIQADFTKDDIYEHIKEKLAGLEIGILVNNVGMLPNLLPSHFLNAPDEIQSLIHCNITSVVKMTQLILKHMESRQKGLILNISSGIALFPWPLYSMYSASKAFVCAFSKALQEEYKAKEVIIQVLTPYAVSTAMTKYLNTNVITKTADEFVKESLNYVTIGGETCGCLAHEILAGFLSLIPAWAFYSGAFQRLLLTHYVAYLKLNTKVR
Experimental: Human 293-EBNA cells stably transfected with 17β-HSD3 were plated at 50,000 cells/well in 24 well plates in complete growth medium. After 48 h 2–3 nM [^3H]-androstenedione in assay medium (500 mL DMEM medium with 5 mL 100 × L-glutamine and 5 mL 7.5% sodium bicarbonate solution) was added with or without test compound at 1.5 mL/well (triplicate), and the cells incubated at 37 °C. Two hours later 1 mL medium was removed from each well and placed in a 125 × 16 mm glass test tube containing 25 µL of recovery solution (5000 dpm ^14C-testosterone and 25 µg unlabelled testosterone […], and the tubes vortexed at high speed for 2 × 30 s. After the samples had settled into two phases, they were snap-frozen in a dry ice/methanol bath. The upper organic phase was decanted into 75 × 12 mm tubes and evaporated to dryness under an airstream using a sample concentrator (TECHNE) at 40 °C. The samples were resuspended in ether (8 drops, then a further 3), spotted onto ca 60 F254 20 cm × 20 cm TLC plates and separated using a 4:1 v/v dichloromethane: ethyl acetate mobile phase. After drying the plates, the major spots were marked under a UV lamp, cut out and placed in individual scintillation vials containing 0.5 mL methanol. These were then shaken lightly and allowed to stand for 15 min before adding 10 mL of EcoScintA (scintillation fluid) to each tube along with 0.5 mL assay medium and counted in a scintillation spectrometer (Beckman, High Wycombe, Bucks, UK), using a program for duel [^3H/^14C] isotopes. The number of cells/well was then counted using a Coulter10 counter (Beckman). The inhibitory activity of the test compounds was then assessed by calculating the amount of product formed correcting for crossover between isotope counts, recovery, dilution and non-enzymatic degradation fmol/hr/million cells) with and without inhibitor (% inhibition).

[2] = parameters: method as in PMID 22512907; details: given subcutaneously to rats; cited from earlier work
human 17β-HSD3 = system: human 17β-HSD3; parameters: method as in PMID 22512907; details: whole HEK-293 cells over-expressing human 17β-HSD3; cited from earlier work
[3] = Compound toxicity, MTS/Alamar Blue proliferation assay, PC-3; assay type: cell-based; details: human, PC-3 (AR-) prostate cancer cells; PC3 (AR-); read-out: Cytotoxicity IC50 (µM) PC3 (AR-)
Experimental: (§1) AR+ (LNCaP) and AR- (PC-3) PCa cell lines were used as standard lines to determine the cytotoxicity of HSD3 inhibitor compounds. Toxicity was assessed over 96 h in 96 well plates using the standard MTS/Alamar Blue proliferation assay and over longer durations by cell counting methodologies.

[4] = Compound toxicity, MTS/Alamar Blue proliferation assay, LNCaP; assay type: cell-based; details: human, LNCaP (AR+) prostate cancer cells; read-out: Cytotoxicity IC50 (µM) LNCaP (AR+)
Experimental: as §1

[5] = system: LNCaP and PC-3 PCa cell lines; parameters: method as in PMID 18786604, PMID 23132791; details: introduction; cited from earlier work
[6] = system: androstenedione-stimulated tumour growth; parameters: method as in PMID 18786604, PMID 23132791; details: mouse model; cited from earlier work
17β-HSD Type 2 [7] = biological target: T1, 17β-HSD Type 2; details: introduction; cited from earlier work
[8] = parameters: method as in PMID 18786604, PMID 23132791; details: introduction; cited from earlier work
[9] = TLC assay, 293-EBNA[HSD3] cells, read-out: IC50 (17β-HSD3)

Row | inhibition at 10 µM (17β-HSD Type 2 [1]) [%] | melting point [°C] | inhibition at 10 µM (17β-HSD3; TLC assay) [%] | IC50 (17β-HSD3; [9]) [nM] | inhibition at 10 µM (17β-HSD Type 1) [%] | SMILES | IC50 at 96 h [3] [µM] | IC50 at 96 h [4] [µM] | other results
1 | 15.9 | 194 to 196 | 87 | 900 |  | CC(=O)Nc1ccccc1CNc1ccccc1Oc1ccc(Cl)cc1 [Compound 1, N-(2-([2-(4-Chloro-phenoxy)-phenylamino]-methyl)-phenyl)-acetamide] |  |  | inhibition at 1 µM (17β-HSD Type 1; tested at 1 μM): 1.3%
2 |  | 140 to 143 | 91 | 3900 | -2.3 | CC(=O)N1CCC(C(=O)Nc2ccccc2CNc2ccccc2Oc2ccc(Cl)cc2)CC1 [Compound 23, 1-Acetyl-piperidine-4-carboxylic acid (2-[2-(4-chloro-phenoxy)-phenylamino]-methyl-phenyl)-amide] |  |  | 
3 |  |  |  |  |  | C[C@@H]1CN(S(=O)(=O)c2ccccc2C(F)(F)F)[C@@H](C)CN1[C@@]1(O)CC[C@@]2(C)C(CCC3C2CC[C@]2(C)C(=O)CCC32)C1 (stereo partly drawn) [RM-532-105] |  |  | plasma levels of T and DHT [2]: significantly decreased; IC50 (human 17β-HSD3): 0.005 µM
4 | 18.4 |  |  |  | 19.6 | CC(=O)N1CCC(CC(=O)N2CCN(C(c3ccc(Cl)cc3)c3ccc(Cl)cc3)C[C@@H]2C(C)(C)C)CC1 [SCH-451659] | 6.8 | 5.5 | IC50 (17β-HSD3; Table 10, read-out: Inhibition of 17β-HSD Type 3 (IC50 nM)): 5 nM

Row | SMILES | inhibition at 10 µM (17β-HSD Type 2 [1]) [%] | melting point [°C] | inhibition at 10 µM (17β-HSD3; TLC assay) [%] | IC50 (17β-HSD3; [9]) [nM] | inhibition at 10 µM (17β-HSD Type 1) [%] | IC50 at 96 h [3] [µM] | IC50 at 96 h [4] [µM] | other results
5 | CC(=O)N1CCCC(Nc2ccccc2Oc2ccc(Cl)cc2)c2ccccc21 (stereo not drawn) [STX2171] | 20.3 |  |  | 200 |  | 22 | 15.7 | cytotoxicity in words [5]: weakly cytotoxic; inhibition of androstenedione-stimulated tumour growth [6]: potent inhibition; selectivity for inhibition of 17β-HSD3 over 17β-HSD2 (17β-HSD Type 2 [7]): selective; androgenicity [8]: non-androgenic
